# Test system: C57BL/6 mice
# Assay: Naked GW2580 crystals co-injected SC with polystyrene or glass spheres, 2 weeks
# Type: in vivo
# Procedure: Naked crystals of GW2580 or saline-only (no drug control) were delivered intraperitoneally along with 500 μm alginate spheres for 2 weeks to C57BL/6 mice. […] Brightfield and fluorescence imaging was used to emphasize the respective presence or lack of fibrotic overgrowth on retrieved alginate spheres from either saline (control) or crystalline GW2580 treatment groups (FIG. 17C). […] GW2580 crystal testing (at doses of 0.5 and 5 mg/SC site) was also extended into the SC implant space with other immunogenic materials, ceramic glass (GL) and polymer polystyrene (PS). […] Retrieved materials where fixed overnight using 4% paraformaldehyde at 4° C. After fixation, alginate sphere or retrieved tissue samples were washed using 70% alcohol. The materials where then mixed with 4 degrees calcium-cooled Histogel (VWR, CA #60872-486). After the molds hardened, the blocks were processed for paraffin embedding, sectioning and staining according to standard histological methods. Single-cell suspensions of freshly excised tissues were prepared using a gentle MACS Dissociator (Miltenyi Biotec, Auburn, Calif.) according to the manufacturer's protocol. Single-cell suspensions were prepared in a passive PEB dissociation buffer (1×PBS, pH 7.2, 0.5% BSA, and 2 mM EDTA) and suspensions were passed through 70 μm filters (Cat. #22363548, Fisher Scientific, Pittsburgh, Pa.). This process removed the majority of cells adhered to the surface (>90%). All tissue and material sample-derived, single-cell populations were then subjected to red blood cell lysis with 5 ml of 1×RBC lysis buffer (Cat. #00-4333, eBioscience, San Diego, Calif., USA) for 5 min at 4° C. The reaction was terminated by the addition of 20 ml of sterile 1×PBS. The cells remaining were centrifuged at 300-400 g at 4° C. and resuspended in a minimal volume (˜50 μl) of eBioscience Staining Buffer (cat. #00-4222) for antibody incubation. All samples were then co-stained in the dark for 25 min at 4° C. with two of the fluorescently tagged monoclonal antibodies specific for the cell markers CD68 (1 μl (0.5 μg) per sample; CD68-Alexa647, Clone FA-11, Cat. #11-5931, BioLegend), Ly-6G (Gr-1) (1 μl (0.5 μg) per sample; Ly-6G-Alexa-647, Clone RB6-8C5, Cat. #108418, BioLegend), CD11b (1 μl (0.2 μg) per sample; or CD11b-Alexa-488, Clone M1/70, Cat. #101217, BioLegend). For alpha smooth muscle actin (fibrosis) analysis, additional cell aliquots were also fixed in 1% paraformaldehyde and permeabilized with 0.1% triton X-100 before being stained with Cy3-conjugated anti-mouse αSM actin antibody (1:100) (Sigma Aldrich, St. Louis, Mo.). Two ml of eBioscience Flow Cytometry Staining Buffer (cat. #00-4222, eBioscience) was then added, and the samples were centrifuged at 400-500 g for 5 min at 4° C. […]
smiles,measurement,setting,value
"COc1ccc(COc2ccc(Cc3cnc(N)nc3N)cc2OC)cc1 [GW2580, 5-[[3-Methoxy-4-[(4-methoxyphenyl)methoxy]phenyl]methyl]-2,4-pyrimidinediamine]",responding macrophages (FACS),"SC-implanted PS and GL 0.5 mm spheres, 2 weeks",significant reductions in responding macrophages
same,drug extracted from nearby tissue,"all implant groups, 2 weeks",large quantities of remaining drug
same,anti-fibrotic effect,"ceramic glass (GL) spheres, SC, no histology",anti-fibrotic effects were also observed
same,anti-fibrotic effect (H&E and Masson's Trichrome),"polystyrene (PS) spheres, SC, 0.5 and 5 mg/SC site, 2 weeks",significant anti-fibrotic effects

# Reference: US10851069B2, “Compositions of crystallized hydrophobic compounds and methods of making and using same” (Massachusetts Institute of Technology, priority 2016, dated 2020)
